From ChEMBL document CHEMBL2073879, “Human monocarboxylate transporter 2 (MCT2) is a high affinity pyruvate transporter” (J Biol Chem, 1998)

How the values were obtained:
[1] = target: T1, Monocarboxylate transporter 1 (Rattus norvegicus) (UniProt P53987); experiment: (§1) TP_TRANSPORTER: inhibition of pyruvate uptake in Xenopus laevis oocytes; type: functional, cell-based; parameters: concentration or dose not given beside the values; conditions: Oocyte
T1 sequence (whole entry): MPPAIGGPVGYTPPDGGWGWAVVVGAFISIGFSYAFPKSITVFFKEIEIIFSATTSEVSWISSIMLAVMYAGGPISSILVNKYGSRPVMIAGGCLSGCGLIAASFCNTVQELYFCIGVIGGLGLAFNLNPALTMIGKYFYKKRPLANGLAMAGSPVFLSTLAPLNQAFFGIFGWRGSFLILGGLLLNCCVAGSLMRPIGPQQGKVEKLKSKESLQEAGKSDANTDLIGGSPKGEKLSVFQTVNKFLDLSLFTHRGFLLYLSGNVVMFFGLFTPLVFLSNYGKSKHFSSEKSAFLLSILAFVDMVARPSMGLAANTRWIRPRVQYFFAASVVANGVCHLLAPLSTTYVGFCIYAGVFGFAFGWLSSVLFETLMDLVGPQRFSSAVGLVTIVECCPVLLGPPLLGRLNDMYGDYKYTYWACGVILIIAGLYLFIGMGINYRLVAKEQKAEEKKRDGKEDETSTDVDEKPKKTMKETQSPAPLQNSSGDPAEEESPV

[2] = target: T2, Monocarboxylate transporter 2 (Homo sapiens) (UniProt O60669); experiment: as §1; type: functional, cell-based; parameters: concentration or dose not given beside the values; conditions: Oocyte
T2 sequence (whole entry): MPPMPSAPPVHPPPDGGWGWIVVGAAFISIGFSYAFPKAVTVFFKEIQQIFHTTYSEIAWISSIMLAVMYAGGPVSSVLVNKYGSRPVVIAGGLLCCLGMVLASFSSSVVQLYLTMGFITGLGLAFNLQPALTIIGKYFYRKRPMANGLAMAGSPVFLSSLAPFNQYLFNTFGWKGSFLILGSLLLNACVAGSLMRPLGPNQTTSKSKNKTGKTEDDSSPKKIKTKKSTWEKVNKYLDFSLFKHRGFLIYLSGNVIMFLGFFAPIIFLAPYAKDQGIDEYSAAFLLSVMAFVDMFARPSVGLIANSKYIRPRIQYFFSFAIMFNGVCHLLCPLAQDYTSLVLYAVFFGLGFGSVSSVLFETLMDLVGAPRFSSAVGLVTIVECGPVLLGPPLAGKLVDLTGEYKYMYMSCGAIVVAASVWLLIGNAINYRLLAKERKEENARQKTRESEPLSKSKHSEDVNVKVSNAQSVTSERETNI

Row | SMILES | Activity [1] | Activity [2]
1 | C[C@@H](O)C(=O)O | 30% | 10%
2 | CCC(O)C(=O)O (racemic) | 40% | 10%
3 | CCOC(=O)/C=C/c1ccc(O)cc1 | 0% | 65%
4 | O=C(O)CCCO | 40% | 10%
5 | O=C(O)/C=C/c1cccc(O)c1 | 20% | 30%
6 | CC(O)CC(=O)O (racemic) | 20% | 30%
7 | O=CC[C@@H](O)[C@H](O)[C@H](O)CO | is not an inhibitor [-] | is not an inhibitor [-]
8 | CC(O)C(=O)[O-].[Na+] (stereo unspecified) | 0% | 0%
